In US12559525B2, “Conjugated fibronectin-binding peptides for use in tumor or fibrosis diagnosis and therapy” (priority 2021, dated 2026):
No end group written: not given here.

What was measured:
PC-3 tumor = assay: Biodistribution of 111In-labelled peptides in PC-3 xenografts; format: in vivo, CD1 nu/nu mice; conditions: radioisotope-labelled peptide
Description: FIG. 4: Biodistribution of ^111In-labeled NODAGA-FnBPA5 and its engineered version NODAGA-FnBPA5.1 in PC-3 tumor-bearing CD1 nu/nu mice 24 hours after injection. Results are shown as averages of % injected activity per gram±SD (n=4).
(§1) Animal studies were carried out according to the Swiss Animal Protection Law under the license AG75700. For tumor implantation, 5×10^6 PC-3 cells in 100 μL PBS were injected subcutaneously into both shoulders of female CD1 nu/nu mice (Charles River, Germany) under isoflurane/oxygen anesthesia. Tumor growth was inspected regularly and tumors were measured using a caliper. Five weeks after tumor implantation, mice were injected via the tail vein with approximately 100-150 kBq of the corresponding ^111In-labelled radiotracers, previously diluted with PBS to a concentration of 1-1.5 MBq/mL. At 24 h p.i., mice were euthanized using CO2. The organs of interest were harvested, weighed and counted by means of gamma counter together with three standards containing 100 μL of the injection solution. The percentage of injected activity per gram (% IA/g) was calculated based on the average of the standards set at 100%.

67NR breast tumor = assay: Biodistribution of 111In-labelled peptides in 67NR orthotopic and syngeneic breast tumor model; format: in vivo, Balb/c mice; conditions: radioisotope-labelled peptide, 67NR orthotopic and syngeneic breast tumor mice
Description: FIG. 5: Biodistribution of ^111In-labeled NODAGA-FnBPA5 and its engineered version NODAGA-FnBPA5.1 in 67NR tumor-bearing mice 24 hours after injection. Results are shown as averages of % injected activity per gram±SD (n=4).
as §1, with “implantation, 40′000 67NR” for “implantation, 5×10^6 PC-3”, “in 50” for “in 100”, “into the mammary fat pad at the 4th nipple” for “into both shoulders”, “female Balb/c” for “female CD1 nu/nu”, “caliper. Two” for “caliper. Five”

[1] = target: T1, Fib1 (N-terminal 30 kDa fragment of fibronectin, SEQ ID NO: 14) (Homo sapiens, UniProt P02751); assay: Affinity towards Fib1 by fluorescence polarization; format: binding; conditions: fluorescence polarization assay (Example 1, FIG. 1)
T1 construct: 6-His (C); made in house
Description: FIG. 1: Affinity measurements of Cy5-labelled FnBPA5.1 and FnBPA5 towards the N-terminal 30 kDa fragment of Fibronectin (Fib1) according to SEQ ID NO: 14. Curves display triplicates measurements of fluorescence polarization. Error bars display standard deviations. Analysis was conducted using GraphPad Prism. KD is shown in nM.
Preferably, said affinity is measurable by using a fluorescence anisotropy assay, using a peptide with N-terminally appended Cy5 label (as described in Preparative Example 1). Detailed protocol for the measurement is included in Example 1.
For the affinity measurement experiment, Cy5-FnBPA5.1 (according to SEQ DI NO: 12) and Cy5-FnBPA5 (according to SEQ DI NO: 13) (48 nM) were mixed with different concentrations of Fib 1—N-terminal 30 kDa fragment of fibronectin according to SEQ ID NO: 14 (0 nM-4.5 μM) in PBS pH 7.4. Samples were incubated for 1 h (37° C., 70 rpm) and fluorescence polarization was measured in triplicates using the Pherastar FSX plate reader (BMG Labtech; Optic module: FP 590-50 675-50 675-50). […]

T1 sequence (P02751 32-290): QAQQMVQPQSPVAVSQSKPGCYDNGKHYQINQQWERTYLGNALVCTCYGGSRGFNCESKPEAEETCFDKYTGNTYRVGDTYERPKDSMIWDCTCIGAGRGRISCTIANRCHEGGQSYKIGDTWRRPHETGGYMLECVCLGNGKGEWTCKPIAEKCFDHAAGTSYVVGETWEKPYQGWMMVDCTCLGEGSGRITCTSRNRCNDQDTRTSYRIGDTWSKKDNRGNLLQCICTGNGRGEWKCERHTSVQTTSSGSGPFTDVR

With “Gln-Val-Thr-Thr-Gly-Ser-Asn-Leu-Val-Glu-Phe-Thr-Glu-Glu-Ser-Leu-Gly-Ie-Val-Thr-Gly-Ala-Val-Ser-Asp-His-Thr-Thr-Val-Glu-Asp-Thr (QVTTGSNLVEFTEESLGIVTGAVSDHTTVEDT; not fully specified) [FnBPA5.1]” the “Uptake in tumors compared with FnBPA5” value (PC-3 tumor; PC3 xenograft mice) was “improved uptake in tumors”, the “Uptake in spleen and liver compared with FnBPA5” value (PC-3 tumor; tumor model not given) was “lower uptake in spleen and liver” and the “Uptake in tumors compared with FnBPA5” value (67NR breast tumor) was “improved uptake in tumors”. The “Affinity for Fib1 compared with FnBPA5” value [1] was “improved affinity”.
